Assay results published in PubChem BioAssay AID256 (DTP/NCI, 2004).
Where “and” joins values, the source holds several entries; their conditions need not be identical. Equal values may be shown once. Toxic doses and inconclusive results are not listed. The calls were made as follows: active = survival T/C of 150% or more; inactive = T/C below 125% in these data.

System: CD2F1 mice, L1210 leukemia ip, survival T/C
Assay: NCI In Vivo Anticancer Drug Screen. Data for tumor model L1210 Leukemia (intraperitoneal) in CD2F1 (CDF1) mice
Settings: endpoint: mean survival time, higher = longer survival
Summary of the method: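 Vehicle-treated tumor-bearing mice served as controls (C) for compound-treated mice (T). Reported figure is T divided by C.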

[1] = dose: 50.0 mg/kg/injection, schedule: Q01DX009 (ip), vehicle: saline with Tween-80
[2] = dose: 100.0 mg/kg/injection, schedule: Q01DX009 (ip), vehicle: saline with Tween-80
[3] = dose: 200.0 mg/kg/injection, schedule: Q01DX009 (ip), vehicle: saline with Tween-80
[4] = dose: 12.5 mg/kg/injection, schedule: Q01DX009 (ip), vehicle: saline with Tween-80
[5] = dose: 25.0 mg/kg/injection, schedule: Q01DX009 (ip), vehicle: saline with Tween-80
[6] = dose: 100.0 mg/kg/injection, schedule: Q04DX003 (ip), vehicle: saline with Tween-80
[7] = dose: 200.0 mg/kg/injection, schedule: Q04DX003 (ip), vehicle: saline with Tween-80
[8] = dose: 400.0 mg/kg/injection, schedule: Q04DX003 (ip), vehicle: saline with Tween-80
[9] = dose: 3.12 mg/kg/injection, schedule: Q01DX009 (ip), vehicle: Klucel (hydroxypropylcellulose) (HPC)
[10] = dose: 6.25 mg/kg/injection, schedule: Q01DX009 (ip), vehicle: Klucel (hydroxypropylcellulose) (HPC)
[11] = dose: 12.5 mg/kg/injection, schedule: Q01DX009 (ip), vehicle: Klucel (hydroxypropylcellulose) (HPC)
[12] = dose: 25.0 mg/kg/injection, schedule: Q01DX009 (ip), vehicle: Klucel (hydroxypropylcellulose) (HPC)
[13] = dose: 100.0 mg/kg/injection, schedule: Q01DX009 (ip), vehicle: saline
[14] = dose: 200.0 mg/kg/injection, schedule: Q01DX009 (ip), vehicle: saline
[15] = dose: 100.0 mg/kg/injection, schedule: Q01DX001 (ip), vehicle: saline
[16] = dose: 200.0 mg/kg/injection, schedule: Q01DX001 (ip), vehicle: saline
[17] = dose: 400.0 mg/kg/injection, schedule: Q01DX001 (ip), vehicle: saline
[18] = dose: 400.0 mg/kg/injection, schedule: Q01DX009 (ip), vehicle: saline with Tween-80
[19] = dose: 100.0 mg/kg/injection, schedule: Q04DX002 (ip), vehicle: saline with Tween-80
[20] = dose: 200.0 mg/kg/injection, schedule: Q04DX002 (ip), vehicle: saline with Tween-80

Measured: T/C

C/C(=C\Cl)COC(C)(C)C
inactive: [1] 98 % of control | [2] 93 % of control | dose: 100.0 mg/kg/injection, schedule: Q04DX003 (ip), vehicle: acetone 101 % of control | [3] 98 % of control | dose: 200.0 mg/kg/injection, schedule: Q04DX003 (ip), vehicle: acetone 93 % of control

O=C(/C(=N\Nc1ccc([N+](=O)[O-])cc1)c1ccccc1)c1ccccc1
inactive: [4] 96 % of control | [5] 88 % of control | [1] 88 % of control | [6] 97 % of control | [7] 97 % of control | [8] 101 % of control

CC1(C)CC(=O)C(CSC(=O)c2ccccc2)C(=O)C1
inactive: [9] 96 % of control and 100 % of control | [10] 101 % of control and 105 % of control | [11] 103 % of control and 104 % of control | [12] 100 % of control and 105 % of control | dose: 50.0 mg/kg/injection, schedule: Q01DX009 (ip), vehicle: Klucel (hydroxypropylcellulose) (HPC) 102 % of control and 106 % of control | dose: 100.0 mg/kg/injection, schedule: Q01DX009 (ip), vehicle: Klucel (hydroxypropylcellulose) (HPC) 102 % of control

CCC1(c2ccccc2)C(=O)N(CBr)C(=O)N(CBr)C1=O
inactive: [4] 98 % of control | [5] 93 % of control | [1] 96 % of control

OCC12OCC(O1)C(O)C(O)C2O (stereo not drawn)
inactive: [13] 97 % of control | [14] 103 % of control | dose: 400.0 mg/kg/injection, schedule: Q01DX009 (ip), vehicle: saline 98 % of control

COC1=C(OC)C(=O)C(C/C=C(\C)CC/C=C(\C)CC/C=C(\C)CC/C=C(\C)CC/C=C(\C)CCC=C(C)C)=C(C)C1=O
inactive: [15] 102 % of control | [16] 103 % of control | [17] 100 % of control

NCCCN1CCOCC1
inactive: [15] 98 % of control | [16] 101 % of control | [17] 95 % of control

Cc1cccc(C)c1N=C(c1ccccc1)N(O)c1ccccc1
inactive: dose: 1.88 mg/kg/injection, schedule: Q01DX009 (ip), vehicle: saline with Tween-80 101 % of control | dose: 1.88 mg/kg/injection, schedule: Q04DX003 (ip), vehicle: saline 93 % of control | dose: 3.75 mg/kg/injection, schedule: Q01DX009 (ip), vehicle: saline with Tween-80 95 % of control | dose: 3.75 mg/kg/injection, schedule: Q04DX003 (ip), vehicle: saline 96 % of control | dose: 7.5 mg/kg/injection, schedule: Q01DX001 (ip), vehicle: saline 103 % of control | dose: 7.5 mg/kg/injection, schedule: Q01DX009 (ip), vehicle: saline with Tween-80 98 % of control | dose: 7.5 mg/kg/injection, schedule: Q04DX003 (ip), vehicle: saline 98 % of control

O=C1OC(=O)C2C3CC(C(Br)C3Br)C12 (stereo not drawn)
inactive: [15] 97 % of control | [2] 106 % of control | [16] 98 % of control | [3] 104 % of control | [17] 97 % of control | [18] 101 % of control

CN(C)CCC(=O)c1ccc([N+](=O)[O-])cc1
inactive: dose: 1.25 mg/kg/injection, schedule: Q01DX009 (ip), vehicle: saline with Tween-80 102 % of control | dose: 2.5 mg/kg/injection, schedule: Q01DX009 (ip), vehicle: saline with Tween-80 96 % of control | dose: 5.0 mg/kg/injection, schedule: Q01DX009 (ip), vehicle: saline with Tween-80 95 % of control | dose: 5.0 mg/kg/injection, schedule: Q04DX003 (ip), vehicle: saline with Tween-80 100 % of control

O=C1CCC2=C(CCC3(C2)OCCO3)N1
inactive: [2] 94 % of control | dose: 100.0 mg/kg/injection, schedule: Q04DX003 (ip), vehicle: saline 96 % of control | [3] 102 % of control | dose: 200.0 mg/kg/injection, schedule: Q04DX003 (ip), vehicle: saline 103 % of control | [18] 90 % of control | dose: 400.0 mg/kg/injection, schedule: Q04DX003 (ip), vehicle: saline 100 % of control

CC1(C)OCC(CO)([N+](=O)[O-])CO1
inactive: [6] 96 % of control

CC(=O)N1CCc2cc(N)ccc21
inactive: [6] 93 % of control | [7] 95 % of control | [8] 97 % of control

Cc1ccc2c(c1)C(=O)N(CC[P+](c1ccccc1)(c1ccccc1)c1ccccc1)C2=O
inactive: dose: 0.39 mg/kg/injection, schedule: Q01DX009 (ip), vehicle: Klucel (hydroxypropylcellulose) (HPC) 105 % of control | dose: 0.78 mg/kg/injection, schedule: Q01DX009 (ip), vehicle: Klucel (hydroxypropylcellulose) (HPC) 100 % of control | dose: 1.56 mg/kg/injection, schedule: Q01DX009 (ip), vehicle: Klucel (hydroxypropylcellulose) (HPC) 112 % of control | [9] 103 % of control | [10] 105 % of control | [11] 101 % of control | [12] 105 % of control

COc1ccc([Si](C)(C)CNCCSS(=O)(=O)O)cc1
inactive: [1] 97 % of control | [2] 103 % of control | [6] 101 % of control | [3] 92 % of control | [7] 95 % of control

CCC(=O)NC(=O)C(=O)NC(=O)CC
inactive: dose: 25.0 mg/kg/injection, schedule: Q04DX002 (ip), vehicle: saline with Tween-80 102 % of control | dose: 50.0 mg/kg/injection, schedule: Q04DX002 (ip), vehicle: saline with Tween-80 95 % of control | [19] 91 % of control | [20] 109 % of control

CCCC(O)C[N+](=O)[O-] (stereo not drawn)
inactive: [13] 104 % of control | [14] 111 % of control

CC[O+](CC)CC
inactive: dose: 12.5 mg/kg/injection, schedule: Q04DX002 (ip), vehicle: saline 95 % of control | dose: 25.0 mg/kg/injection, schedule: Q04DX002 (ip), vehicle: saline 91 % of control | dose: 50.0 mg/kg/injection, schedule: Q04DX002 (ip), vehicle: saline 95 % of control

CN(C)C(=O)N(c1ccccc1)c1ccccc1
inactive: [19] 98 % of control | [20] 90 % of control

CCCC(=O)Nc1ncnc2c1nc(NC(=O)CCC)n2C1OC2COP(=O)(O)OC2C1OC(=O)CCC (stereo not drawn)
inactive: dose: 6.25 mg/kg/injection, schedule: Q01DX005 (ip), vehicle: water 97 % of control | dose: 12.5 mg/kg/injection, schedule: Q01DX005 (ip), vehicle: water 104 % of control | dose: 25.0 mg/kg/injection, schedule: Q01DX005 (ip), vehicle: water 93 % of control | dose: 50.0 mg/kg/injection, schedule: Q01DX005 (ip), vehicle: water 97 % of control | dose: 100.0 mg/kg/injection, schedule: Q01DX005 (ip), vehicle: water 93 % of control

CN(C)/N=C(\CBr)c1ccccc1
inactive: dose: 50.0 mg/kg/injection, schedule: Q01DX009 (ip), vehicle: saline sonified 96 % of control | [15] 102 % of control | dose: 100.0 mg/kg/injection, schedule: Q01DX009 (ip), vehicle: saline sonified 103 % of control | [16] 100 % of control
